# Patent publication EP0616805A1, “Use of acyl L-carnitine gamma-hydroxybutyrate for the treatment of alcoholism” (Sigma-Tau Industrie Farmaceutiche Riunite S.p.A., priority 1993, dated 1994)
# How the values were obtained:
# Assay type in all cases: in vivo, Wistar male rats
# [1] = tested on: rats chronically treated with alcohol; assay: alcohol withdrawal syndrome: convulsions on sound stimulation (electric bell, 100 dB, 1 min); details: 100 mg/kg intraperitoneal, eight hours after suspension of ethanol; test one hour after treatment; saline group 9/10
# Method: The experiment was performed in Wistar male rats housed in groups of 5 per cage under constant light-dark alternation at 21°C and fed with standard laboratory feed. The animals were chronically administered 10% ethanol ad lib. for 6 months.
# Eight hours after suspension of ethanol administration the animals were divided into 4 groups of 10 rats each. The first group (A) were administered saline solution (15 ml/kg) intraperitoneally, the second group (B) VCGB (100 mg/kg), again intraperitoneally, the third group (C) GHB (100 mg/kg) and the last group (D) IVC (100 mg/kg). For the purposes of evaluating the effects of the treatment on occurrence of alcohol withdrawal syndrome, the rats' susceptibility to onset of behavioral reactions (convulsions) due to emission of sound for 1 min by an electric bell (100 dB) was observed. The experiment was performed in all groups of rats one hour after treatment, and the results are given here below in Table 3.
# alcohol-dependent rats = assay: modified Vogel test (licks at shock-linked drinking vessel) in alcohol-dependent rats; details: 100 mg/kg intraperitoneal at ethanol suspension; rats given 10% ethanol for 6 months; 10 min. exposure period; saline group 38.5 ± 8.5
# Method: Wistar male rats (housed in groups of 5 per cage) were used, kept in conditions of constant light-dark alternation at 21°C and fed with standard laboratory feed. The animals were chronically administered 10% ethanol ad lib. for 6 months.
# To assess the activity, if any, of VCGB on the anxiety component involved in the compulsive act of searching for alcohol, a modified version of the Vogel test was used as described by Keppler D. et al. in Exp. Mol. Path. 9, 279 (1968).
# Prior to the start of the experiment the animals were deprived of water for 48 h. At the time of ethanol treatment suspension, the animals were divided into 4 groups who were given the following intraperitoneal administrations: the first group (A) received saline solution (15 ml/kg), the second group (B) VCGB (100 mg/kg), the third group (C) GHB (100 mg/kg) and the fourth group (D) IVC ([…]).
# On the day of the test, the animals were provided with two drinking vessels, one containing water and the other a mixture of water and ethanol (90:10 v/v) in bottles, the metal spouts of which were connected up to a source of electricity: after every 5 licks at the drinking vessel an electric shock (1 mA) was delivered for 10 min. which obliged the animal to withdraw, overcoming its desire to drink the water-alcohol solution. Refusal of the animals to drink the water-alcohol solution, confining their attention only to the vessel containing water alone, was taken as an indication of efficacy. In evaluating the results, the numbers of licks were compared for treated animals versus controls over the 10 min. exposure period.
# [2] = tested on: rats chronically administered 10% ethanol; assay: alcohol withdrawal syndrome: tremors by the Hunt-Majchrowicz method; details: 100 mg/kg intraperitoneal, eight hours after suspension of ethanol; for number of tremors, 30 min: saline group 6 ± 2.5; for number of tremors, 60 min: saline group 8 ± 1.5; for number of tremors, 90 min: saline group 7 ± 1.5; for number of tremors, 120 min: saline group 8 ± 2.5
# Method: The experiment was performed in Wistar male rats housed in groups of 5 per cage under conditions of constant light-dark alternation at 21°C and fed with standard laboratory feed. The animals were chronically administered 10% ethanol ad lib. for 6 months.
# Eight hours after suspension of ethanol administration, the animals were divided into 4 groups of 5 rats each.
# The first group (A) was administered saline solution intraperitoneally (15 ml/kg), the second group (B) was given VCGB (100 mg/kg), again intraperitoneally, the third group (C) received GHB (100 mg/kg), while the fourth group (D) was given IVC (100 mg/kg). For the purposes of assessing the effects induced by the above-mentioned treatments on occurrence of alcohol withdrawal syndrome, tremors were measured in the rat, where, as in man, they are the most characteristic sign of withdrawal syndrome. Evaluation of the number of tremors was done using the method described by Hunt and Majchrowicz (see Hunt W.A. and Majchrovicz E., Journal of Pharmacology and Experimental Therapeutics, 213, 9-12 (1980). The results are given here below in Table 2. TABLE 2.
# [3] = tested on: lipoperoxidation in the CNS of rats; assay: lipoperoxidation in the CNS: cerebral malonaldehyde (MDA) after chronic ethanol treatment; details: brain homogenate; 10% ethanol for two months, then 100 mg/kg single intraperitoneal dose; Control 0.543 ± 0.19, Ethanol 1.12 ± 0.13
# Method: This study was conducted in order to assess what variations in malonaldehyde (MDA) occur following VCGB administration, MDA being a reliable and quantifiable index of the vulnerability of the central nervous system to damage due to free radicals as a result of the detrimental effects of ethanol.
# The experiment was conducted in Wistar male rats housed in groups of 5 per cage under constant light-dark alternation at 21°C and fed with standard laboratory feed. Two groups of rats, each comprising 5 animals, were administered 10% ethanol in water throughout the treatment period. A third group of animals was kept on a standard laboratory diet without receiving any treatment. After two months of ethanol treatment the animals in the first group were administered VCGB in aqueous solution (100 mg/kg) in a single intraperitoneal dose. A few days after treatment, the animals were sacrificed and the brains promptly removed. MDA was measured using a modified micromethod described by Slater and Sawyer (Slater T. F. and Sawyer B. C., 1971, J. Biochem. Tokyo 8: 2180). […] The samples were placed in boiling water for 10 min, and after cooling absorbance was determined at 532 nm using a spectrophotometer. […] Proteins were measured by the Smith method (Smith et al., 1985, Analyt. Biochem. 27: 502), using bicinchoninic acid as reagent. […]
Compound,Animals with convulsions/animals treated [1],Number of licks (alcohol-dependent rats),"number of tremors, 30 min [2]","number of tremors, 60 min [2]","number of tremors, 90 min [2]","number of tremors, 120 min [2]",MDA [3] [nmol/mg protein]
"O=C(O)CCCO [GHB, gamma-hydroxybutyric acid]",4/10,11 ± 2.4 ▲,2 ± 0.5,1 ± 0.5,2 ± 1,3 ± 1,–
"CC(C)CC(=O)O[C@H](CC(=O)[O-])C[N+](C)(C)C [IVC, isovaleryl L-carnitine]",6/10,35.2 ± 7.4,4 ± 2,5 ± 2,5 ± 1.5,6 ±2,–
"CC(C)CC(=O)O[C@H](CC(=O)OCCCC(=O)[O-])C[N+](C)(C)C [VCGB, isovaleryl L-carnitine gamma-hydroxybutyrate]",1/10,5.6 ± 1.14,0 ± 0.25,0 ± 0,0 ± 0.75,0 ± 0.25,0.497 ± 0.15
